Calls of active or inactive are those of the source. The rule behind the calls is not given here.
Columns and labels:
[1] = biological target: Rho-associated protein kinase 2 (Homo sapiens, UniProt O75116)
Description: Inhibition of wild type human ROCK2 by high throughput ATP-[33P] radiolabeled assay

[2] = biological target: Mitogen-activated protein kinase 8 (Homo sapiens, UniProt P45983)
Description: Inhibition of wild type human JNK1 by high throughput [33P]-ATP radiolabeled assay

[3] = biological target: T1, Mitogen-activated protein kinase 14 (Homo sapiens, UniProt Q16539)
Description: Inhibition of wild type human P38a by high throughput ATP-[33P] radiolabeled assay

[4] = biological target: Protein delta homolog 1 (Homo sapiens) (UniProt P80370); assay: Inhibition of human wild type DLK at 1 uM by qPCR analysis relative to control
[5] = biological target: Tyrosine-protein kinase ABL1 (Homo sapiens, UniProt P00519); assay: Inhibition of human ABL1 mutant at 1 uM by qPCR analysis
[6] = biological target: Vascular endothelial growth factor receptor 1 (Homo sapiens, UniProt P17948)
Description: Inhibition of wild type human FLT1 by high throughput ATP-[33P] radiolabeled assay

[7] = biological target: T2, Leucine-rich repeat serine/threonine-protein kinase 2 (Homo sapiens, UniProt Q5S007)
Description: Inhibition of human wild type LRRK2 by qPCR analysis

[8] = biological target: Tyrosine-protein kinase ZAP-70 (Homo sapiens, UniProt P43403)
Description: Inhibition of wild type human ZAP70 by high throughput ATP-[33P] radiolabeled assay

[9] = biological target: Dual specificity tyrosine-phosphorylation-regulated kinase 1B (Homo sapiens) (UniProt Q9Y463); assay: Inhibition of human wild type DYRK1B at 1 uM by qPCR analysis relative to control
[10] = biological target: Inhibitor of nuclear factor kappa-B kinase subunit alpha (Homo sapiens) (UniProt O15111); assay: Inhibition of human wild type IKKalpha at 1 uM by qPCR analysis relative to control
[11] = biological target: ALK tyrosine kinase receptor (Homo sapiens) (UniProt Q9UM73); assay: Inhibition of human wild type ALK at 1 uM by qPCR analysis relative to control
Cytochrome P450 2D6 = Cytochrome P450 2D6 (Homo sapiens, UniProt P10635)
Description: Inhibition of CYP2D6 in human liver microsomes assessed as inhibition of diclofenac metabolism by HPLC/MS analysis

[12] = biological target: NUAK family SNF1-like kinase 1 (Homo sapiens) (UniProt O60285); assay: Inhibition of human wild type ARK5 at 1 uM by qPCR analysis relative to control
[13] = biological target: Platelet-derived growth factor receptor beta (Homo sapiens) (UniProt P09619); assay: Inhibition of human wild type PDGFRB at 1 uM by qPCR analysis relative to control
Aurora kinase B = Aurora kinase B (Homo sapiens, UniProt Q96GD4)
Description: Inhibition of wild type human Aurora kinase B by high throughput ATP-[33P] radiolabeled assay

[14] = biological target: Serine/threonine-protein kinase MARK2 (Homo sapiens) (UniProt Q7KZI7); assay: Inhibition of human wild type MARK2 at 1 uM by qPCR analysis relative to control
[15] = biological target: T2, Leucine-rich repeat serine/threonine-protein kinase 2; assay: Inhibition of human wild type LRRK2 at 1 uM by qPCR analysis relative to control
[16] = biological target: T3, Mitogen-activated protein kinase kinase kinase 11 (Homo sapiens, UniProt Q16584); settings: 300 nM
[17] = biological target: Serine/threonine-protein kinase Sgk1 (Homo sapiens) (UniProt O00141); assay: Inhibition of human wild type SGK1 at 1 uM by qPCR analysis relative to control
[18] = biological target: T4, Mitogen-activated protein kinase 1 (Homo sapiens, UniProt P28482); assay: Inhibition of human wild type ERK2 at 1 uM by qPCR analysis
[19] = biological target: Cyclin-dependent kinase 11B (Homo sapiens) (UniProt P21127); assay: Inhibition of human wild type CDK11 at 1 uM by qPCR analysis relative to control
[20] = biological target: Cyclin-dependent kinase 4 (Homo sapiens) (UniProt P11802); assay: Inhibition of human wild type CDK4 at 1 uM by qPCR analysis relative to control
[21] = biological target: T4, Mitogen-activated protein kinase 1
Description: Inhibition of wild type human ERK2 by high throughput ATP-[33P] radiolabeled assay

[22] = biological target: BDNF/NT-3 growth factors receptor (Homo sapiens, UniProt Q16620)
Description: Inhibition of wild type human TRKB by high throughput ATP-[33P] radiolabeled assay

[23] = biological target: Mast/stem cell growth factor receptor Kit (Homo sapiens) (UniProt P10721); assay: Inhibition of human wild type KIT at 1 uM by qPCR analysis relative to control
[24] = biological target: Cyclin-dependent kinase-like 2 (Homo sapiens) (UniProt Q92772); assay: Inhibition of human wild type CDKL2 at 1 uM by qPCR analysis relative to control
[25] = biological target: T3, Mitogen-activated protein kinase kinase kinase 11
Description: Inhibition of MLK3 (unknown origin) after 20 mins by scintillation counting analysis in presence of [33P]-ATP

Brain = assay: Drug uptake in C57BL/6 mouse brain at 10 mg/kg, iv measured over 6 hrs; format: ADME, organism-based; set-up: dose 10 mg/kg, route intravenous; settings: in vivo
Cytochrome P450 2C9 = Cytochrome P450 2C9 (Homo sapiens, UniProt P11712)
Description: Inhibition of CYP2C9 in human liver microsomes assessed as inhibition of midazolam metabolism by HPLC/MS analysis

[26] = biological target: Mitogen-activated protein kinase kinase kinase 9 (Homo sapiens, UniProt P80192)
Description: Inhibition of MLK1 (unknown origin)

[27] = biological target: Tyrosine-protein kinase Lck (Homo sapiens, UniProt P06239)
Description: Inhibition of wild type human LCK by high throughput ATP-[33P] radiolabeled assay

[28] = biological target: High affinity nerve growth factor receptor (Homo sapiens, UniProt P04629)
Description: Inhibition of wild type human TRKA by high throughput ATP-[33P] radiolabeled assay

[29] = biological target: Serine/threonine-protein kinase MARK1 (Homo sapiens) (UniProt Q9P0L2); assay: Inhibition of human wild type MARK1 at 1 uM by qPCR analysis relative to control
[30] = biological target: Inhibitor of nuclear factor kappa-B kinase subunit beta (Homo sapiens) (UniProt O14920); assay: Inhibition of human wild type IKKbeta at 1 uM by qPCR analysis relative to control
[31] = biological target: Rho-associated protein kinase 1 (Homo sapiens, UniProt Q13464)
Description: Inhibition of wild type human ROCK1 by high throughput ATP-[33P] radiolabeled assay

[32] = biological target: RAC-beta serine/threonine-protein kinase (Homo sapiens) (UniProt P31751); assay: Inhibition of human wild type AKT2 at 1 uM by qPCR analysis
[33] = biological target: RAC-alpha serine/threonine-protein kinase (Homo sapiens) (UniProt P31749); assay: Inhibition of human wild type AKT1 at 1 uM by qPCR analysis
[34] = biological target: Maternal embryonic leucine zipper kinase (Homo sapiens) (UniProt Q14680); assay: Inhibition of human wild type MELK at 1 uM by qPCR analysis relative to control
[35] = biological target: T1, Mitogen-activated protein kinase 14; assay: Inhibition of human wild type p38alpha at 1 uM by qPCR analysis
[36] = biological target: Ribosomal protein S6 kinase alpha-1 (Homo sapiens) (UniProt Q15418); assay: Inhibition of human wild type RSK1 at 1 uM by qPCR analysis
[37] = biological target: Mitogen-activated protein kinase kinase kinase 2 (Homo sapiens, UniProt Q9Y2U5)
Description: Inhibition of wild type human MEKK2 by high throughput ATP-[33P] radiolabeled assay

T4 sequence (P28482 whole entry): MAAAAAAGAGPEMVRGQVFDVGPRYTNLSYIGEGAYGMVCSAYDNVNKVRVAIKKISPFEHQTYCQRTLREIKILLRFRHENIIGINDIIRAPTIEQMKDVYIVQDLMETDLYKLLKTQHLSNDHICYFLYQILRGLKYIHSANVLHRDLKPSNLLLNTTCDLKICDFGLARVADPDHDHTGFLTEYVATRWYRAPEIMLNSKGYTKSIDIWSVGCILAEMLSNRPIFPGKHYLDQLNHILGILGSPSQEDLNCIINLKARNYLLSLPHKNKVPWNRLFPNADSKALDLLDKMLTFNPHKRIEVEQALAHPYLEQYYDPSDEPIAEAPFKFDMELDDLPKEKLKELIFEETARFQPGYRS
T2 sequence (Q5S007 whole entry): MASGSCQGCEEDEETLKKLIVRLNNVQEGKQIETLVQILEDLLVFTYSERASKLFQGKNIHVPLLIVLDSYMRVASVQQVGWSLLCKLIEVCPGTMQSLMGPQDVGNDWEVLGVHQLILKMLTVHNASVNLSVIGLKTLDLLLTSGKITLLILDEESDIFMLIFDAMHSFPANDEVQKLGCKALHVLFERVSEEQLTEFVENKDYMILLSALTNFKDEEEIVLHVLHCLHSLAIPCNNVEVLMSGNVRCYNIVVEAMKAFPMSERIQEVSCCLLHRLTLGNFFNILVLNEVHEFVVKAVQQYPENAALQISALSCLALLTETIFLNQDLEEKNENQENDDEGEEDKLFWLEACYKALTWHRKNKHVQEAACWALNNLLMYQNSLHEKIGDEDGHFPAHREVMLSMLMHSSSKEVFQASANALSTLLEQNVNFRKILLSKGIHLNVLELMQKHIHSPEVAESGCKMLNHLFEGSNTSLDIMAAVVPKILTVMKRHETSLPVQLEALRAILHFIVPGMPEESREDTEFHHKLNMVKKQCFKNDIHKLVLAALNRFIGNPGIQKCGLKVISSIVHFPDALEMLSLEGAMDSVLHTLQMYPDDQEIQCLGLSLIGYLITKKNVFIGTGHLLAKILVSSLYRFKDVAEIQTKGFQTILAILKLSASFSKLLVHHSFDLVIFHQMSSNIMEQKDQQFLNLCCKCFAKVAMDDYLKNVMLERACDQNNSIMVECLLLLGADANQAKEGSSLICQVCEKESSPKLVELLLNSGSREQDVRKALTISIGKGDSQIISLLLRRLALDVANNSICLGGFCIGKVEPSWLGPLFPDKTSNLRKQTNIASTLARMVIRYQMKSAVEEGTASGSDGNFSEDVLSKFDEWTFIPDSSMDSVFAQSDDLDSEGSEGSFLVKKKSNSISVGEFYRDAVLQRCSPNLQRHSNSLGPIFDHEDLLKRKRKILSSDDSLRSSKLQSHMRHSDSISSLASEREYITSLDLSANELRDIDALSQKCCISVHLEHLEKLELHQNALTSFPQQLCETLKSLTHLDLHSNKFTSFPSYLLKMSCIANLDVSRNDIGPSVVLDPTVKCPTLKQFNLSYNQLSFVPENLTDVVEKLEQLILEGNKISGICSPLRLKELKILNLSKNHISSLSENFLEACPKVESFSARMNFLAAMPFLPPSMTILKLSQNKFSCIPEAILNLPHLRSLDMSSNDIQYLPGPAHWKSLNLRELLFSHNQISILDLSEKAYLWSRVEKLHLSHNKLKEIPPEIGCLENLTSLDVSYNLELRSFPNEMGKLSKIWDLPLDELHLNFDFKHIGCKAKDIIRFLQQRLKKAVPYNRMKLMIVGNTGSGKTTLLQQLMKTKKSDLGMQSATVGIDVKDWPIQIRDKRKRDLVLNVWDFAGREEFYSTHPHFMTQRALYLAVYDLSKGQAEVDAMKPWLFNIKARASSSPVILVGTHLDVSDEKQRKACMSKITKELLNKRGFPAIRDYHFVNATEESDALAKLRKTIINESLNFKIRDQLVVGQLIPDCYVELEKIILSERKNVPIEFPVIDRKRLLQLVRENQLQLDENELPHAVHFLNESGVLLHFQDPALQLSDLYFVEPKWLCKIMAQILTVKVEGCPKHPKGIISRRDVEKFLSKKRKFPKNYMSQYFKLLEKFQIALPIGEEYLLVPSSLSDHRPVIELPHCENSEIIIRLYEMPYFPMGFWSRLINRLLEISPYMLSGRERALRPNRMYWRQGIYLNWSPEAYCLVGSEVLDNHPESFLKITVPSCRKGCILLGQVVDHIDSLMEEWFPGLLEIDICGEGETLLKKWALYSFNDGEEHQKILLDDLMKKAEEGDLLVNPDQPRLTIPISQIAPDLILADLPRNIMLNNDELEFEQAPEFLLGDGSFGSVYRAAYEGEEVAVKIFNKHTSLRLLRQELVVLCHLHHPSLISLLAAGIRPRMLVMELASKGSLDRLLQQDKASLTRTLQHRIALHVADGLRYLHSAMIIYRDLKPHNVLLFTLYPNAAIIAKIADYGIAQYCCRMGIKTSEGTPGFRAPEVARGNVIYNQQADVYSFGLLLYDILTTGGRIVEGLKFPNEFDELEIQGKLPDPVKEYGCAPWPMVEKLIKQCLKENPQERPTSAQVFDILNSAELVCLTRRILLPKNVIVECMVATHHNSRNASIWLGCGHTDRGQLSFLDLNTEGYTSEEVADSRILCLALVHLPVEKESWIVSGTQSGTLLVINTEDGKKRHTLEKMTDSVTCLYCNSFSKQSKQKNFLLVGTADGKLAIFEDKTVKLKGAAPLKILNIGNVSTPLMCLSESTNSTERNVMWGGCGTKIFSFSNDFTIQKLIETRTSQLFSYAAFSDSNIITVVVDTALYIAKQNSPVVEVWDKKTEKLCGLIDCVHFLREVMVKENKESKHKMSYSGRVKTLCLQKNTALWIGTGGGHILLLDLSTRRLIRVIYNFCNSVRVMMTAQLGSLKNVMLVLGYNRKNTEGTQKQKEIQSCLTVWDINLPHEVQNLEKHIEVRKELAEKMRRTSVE
T1 sequence (Q16539 whole entry): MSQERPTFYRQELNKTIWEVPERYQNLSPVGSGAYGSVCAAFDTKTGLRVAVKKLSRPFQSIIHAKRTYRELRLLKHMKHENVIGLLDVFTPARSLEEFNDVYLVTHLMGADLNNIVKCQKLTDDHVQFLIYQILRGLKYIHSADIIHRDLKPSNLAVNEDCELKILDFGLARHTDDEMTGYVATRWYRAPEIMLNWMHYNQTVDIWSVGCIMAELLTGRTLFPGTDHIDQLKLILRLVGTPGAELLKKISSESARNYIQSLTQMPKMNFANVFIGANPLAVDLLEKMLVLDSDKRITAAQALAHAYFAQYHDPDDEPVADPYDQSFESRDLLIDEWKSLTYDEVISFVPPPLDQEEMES
Chain of Tyrosine-protein kinase ZAP-70 (P43403 whole entry): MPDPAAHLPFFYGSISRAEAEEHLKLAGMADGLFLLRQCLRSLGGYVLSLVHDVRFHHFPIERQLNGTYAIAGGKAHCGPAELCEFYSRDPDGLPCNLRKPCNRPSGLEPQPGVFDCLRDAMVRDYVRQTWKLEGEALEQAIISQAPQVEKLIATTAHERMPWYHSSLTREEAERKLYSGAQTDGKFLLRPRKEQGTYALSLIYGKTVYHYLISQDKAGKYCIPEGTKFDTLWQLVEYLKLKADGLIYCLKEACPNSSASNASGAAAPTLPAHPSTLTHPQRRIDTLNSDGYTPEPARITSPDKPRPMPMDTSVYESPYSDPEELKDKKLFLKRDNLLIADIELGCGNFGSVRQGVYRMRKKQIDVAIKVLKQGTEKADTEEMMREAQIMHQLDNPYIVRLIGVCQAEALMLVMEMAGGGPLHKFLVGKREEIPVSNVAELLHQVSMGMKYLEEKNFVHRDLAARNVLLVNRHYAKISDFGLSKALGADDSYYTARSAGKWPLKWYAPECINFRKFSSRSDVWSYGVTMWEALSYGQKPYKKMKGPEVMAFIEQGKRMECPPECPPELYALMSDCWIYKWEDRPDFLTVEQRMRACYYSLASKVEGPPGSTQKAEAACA
Chain of Dual specificity tyrosine-phosphorylation-regulated kinase 1B (Homo sapiens) (Q9Y463 whole entry, looked up): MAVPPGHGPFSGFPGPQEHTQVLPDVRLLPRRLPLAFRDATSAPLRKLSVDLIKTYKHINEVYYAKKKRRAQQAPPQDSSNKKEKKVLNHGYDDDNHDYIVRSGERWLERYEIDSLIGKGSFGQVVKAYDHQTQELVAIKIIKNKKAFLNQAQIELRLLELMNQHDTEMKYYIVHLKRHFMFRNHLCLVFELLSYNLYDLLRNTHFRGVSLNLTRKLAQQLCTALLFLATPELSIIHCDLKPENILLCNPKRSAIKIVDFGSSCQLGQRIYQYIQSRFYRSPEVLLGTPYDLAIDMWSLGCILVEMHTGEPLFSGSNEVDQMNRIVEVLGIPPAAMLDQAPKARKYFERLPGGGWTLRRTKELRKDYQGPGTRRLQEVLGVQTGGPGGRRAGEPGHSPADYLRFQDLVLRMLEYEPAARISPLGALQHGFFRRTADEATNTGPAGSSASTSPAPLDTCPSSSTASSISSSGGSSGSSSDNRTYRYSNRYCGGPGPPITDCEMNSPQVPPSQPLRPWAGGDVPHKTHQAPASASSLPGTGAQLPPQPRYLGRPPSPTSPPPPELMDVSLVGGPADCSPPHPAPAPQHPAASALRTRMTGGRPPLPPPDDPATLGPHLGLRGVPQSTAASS
Chain of RAC-alpha serine/threonine-protein kinase (Homo sapiens) (P31749 whole entry): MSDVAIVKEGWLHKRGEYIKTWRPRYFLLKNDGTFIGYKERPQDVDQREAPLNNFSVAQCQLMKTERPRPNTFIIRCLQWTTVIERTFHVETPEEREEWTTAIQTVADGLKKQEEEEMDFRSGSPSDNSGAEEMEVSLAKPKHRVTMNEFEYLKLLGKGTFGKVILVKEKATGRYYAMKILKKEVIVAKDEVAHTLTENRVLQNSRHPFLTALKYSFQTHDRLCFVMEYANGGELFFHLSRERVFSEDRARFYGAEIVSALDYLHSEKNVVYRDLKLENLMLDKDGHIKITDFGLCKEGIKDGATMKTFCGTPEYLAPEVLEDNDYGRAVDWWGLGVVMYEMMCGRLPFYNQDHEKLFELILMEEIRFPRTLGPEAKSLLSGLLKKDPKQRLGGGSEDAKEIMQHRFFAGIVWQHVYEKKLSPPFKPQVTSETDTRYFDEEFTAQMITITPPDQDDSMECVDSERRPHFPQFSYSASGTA

Q: For `CN1CCN(Cc2ccc(-c3cnc4[nH]cc(-c5ccc6[nH]ccc6c5)c4c3)cc2)CC1`, which IC50 [1] is on record?
A: Its IC50 is 0.111 µM.

Q: And the IC50 [2]?
A: Its IC50 is 3.2 µM.

Q: What about the IC50 [3] of the same compound?
A: Its IC50 is 12 µM.

Q: And the inhibition [4]?
A: The inhibition was 88%.

Q: And the inhibition [5]?
A: Its inhibition is “Active”.

Q: And the IC50 [6]?
A: The IC50 was 0.039 µM.

Q: And the IC50 [7]?
A: Its IC50 is 0.011 µM.

Q: What about the IC50 [8] of the same compound?
A: The IC50 was 5.05 µM.

Q: And the inhibition [9]?
A: The inhibition was over 90%.

Q: And the inhibition [10]?
A: Its inhibition is over 90%.

Q: What about the inhibition [11] of the same compound?
A: The inhibition was over 90%.

Q: And the IC50 (Cytochrome P450 2D6)?
A: Its IC50 is over 30 µM.

Q: And the inhibition [12]?
A: The inhibition was over 90%.

Q: What about the inhibition [13] of the same compound?
A: The inhibition was over 90%.

Q: And the IC50 (Aurora kinase B)?
A: Its IC50 is 0.123 µM.

Q: What about the inhibition [14] of the same compound?
A: The inhibition was 49%.

Q: What about the inhibition [15] of the same compound?
A: Its inhibition is 92%.

Q: What about the inhibition [16] of the same compound?
A: The inhibition was over 50%.

Q: And the inhibition [17]?
A: Its inhibition is 70%.

Q: What about the inhibition [18] of the same compound?
A: Its inhibition is “inactive”.

Q: What about the inhibition [19] of the same compound?
A: The inhibition was over 90%.

Q: And the inhibition [20]?
A: The inhibition was over 90%.

Q: And the IC50 [21]?
A: Its IC50 is 6.29 µM.

Q: What about the IC50 [22] of the same compound?
A: Its IC50 is 0.217 µM.

Q: What about the inhibition [23] of the same compound?
A: The inhibition was over 90%.

Q: And the inhibition [24]?
A: Its inhibition is over 90%.

Q: And the IC50 [25]?
A: Its IC50 is 0.014 µM.

Q: What about the Drug uptake (Brain) of the same compound?
A: Its Drug uptake is “Active”.

Q: And the IC50 (Cytochrome P450 2C9)?
A: The IC50 was over 30 µM.

Q: What about the IC50 [26] of the same compound?
A: The IC50 was 0.019 µM.

Q: What about the IC50 [27] of the same compound?
A: The IC50 was 0.333 µM.

Q: What about the IC50 [28] of the same compound?
A: The IC50 was 0.085 µM.

Q: What about the inhibition [29] of the same compound?
A: The inhibition was 92%.

Q: And the inhibition [30]?
A: The inhibition was over 90%.

Q: What about the IC50 [31] of the same compound?
A: The IC50 was 1.03 µM.

Q: And the inhibition [32]?
A: The inhibition was “inactive”.

Q: And the inhibition [33]?
A: The inhibition was “inactive”.

Q: What about the inhibition [34] of the same compound?
A: The inhibition was over 90%.

Q: What about the inhibition [35] of the same compound?
A: Its inhibition is “inactive”.

Q: And the inhibition [36]?
A: Its inhibition is “inactive”.

Q: What about the IC50 [37] of the same compound?
A: The IC50 was 0.661 µM.

Source: ChEMBL document CHEMBL2434948, “Discovery, synthesis, and characterization of an orally bioavailable, brain penetrant inhibitor of mixed lineage kinase 3” (J Med Chem, 2013)
